Six molecules from patent US20160312179A1 (GLAXOSMITHKLINE INTELLECHTUAL PROPERTY (NO.2) LIMITED, priority 2013, published 2016) can be followed below.

SMILES strings stand for the structures. Entries after “also recorded” stand apart in the source; their conditions may differ.

Holding throughout (type): cell-based, Chinese hamster
The test system of series [1] is DG44 CHO. The series is described as follows: Dose response study in shake flasks: lactate accumulation. Particulars: 45 mM added to the culture. As to the method:
(§1) Several TCA cycle intermediates were selected for a dose response experiment based on commercial availability, either the acid or its sodium salt were purchased from Sigma Aldrich to prepare stock solution feeds to be used in the study. Selected compounds were pyruvic acid, citric acid, α-ketoglutaric acid, fumaric acid, malic acid (or sodium salts), and oxaloacetic acid (no sodium salt available).
Oxaloacetic acid and malic acid were added to the culture to a final concentration of 5 mM, 10 mM and 15 mM. […] FIG. 1 summarizes the TCA cycle components tested and their location in the pathway. Table 1 summarizes the operation condition of shake flasks in the study as well as feed schedules for the dose response study. […]
Shake flask cultures were sampled every other day to determine Total Cell Concentration (TCC), Viable Cell Concentration (VCC), cell viability, metabolite (glucose, lactate, glutamine, glutamate, and ammonia) concentration, and osmolality. […] Titer was determined on samples filtered through a 0.22 μm-filter.
(§2) TCC, VCC and viability were determined using an automated cell counter based on the trypan blue exclusion method (ViCell XR, Beckman Coulter). […] Incubation to allow dissociation was carried out for 20-25 minutes at 37° C. under gentle shaking Metabolites were measured using Nova Bioprofile (Nova Bioprofile 400); which operates on enzyme-based electrochemical reactions. […]

Series [2] has as its system DG44 CHO. The series is described as follows: Dose response study in shake flasks: ammonia (NH4+) accumulation and production. Particulars: for effect on ammonia (NH4+) accumulation: dose response, intermediate used alone, compared to control culture. As to the method:
as §1
(§3) Oxaloacetic acid and malic acid were added to the culture to a final concentration of 5 mM, 10 mM and 15 mM. […] FIG. 1 summarizes the TCA cycle components tested and their location in the pathway. Table 1 summarizes the operation condition of shake flasks in the study as well as feed schedules for the dose response study.
(§4) Control shake flasks were set up every time an arm of the study started. Those control shake flasks were fed-batch cultures without addition of any TCA intermediate. All conditions tested were executed in duplicate shake flasks.
(§5) Shake flask cultures were sampled every other day to determine Total Cell Concentration (TCC), Viable Cell Concentration (VCC), cell viability, metabolite (glucose, lactate, glutamine, glutamate, and ammonia) concentration, and osmolality. The master sample was divided into cell-based assays (TCC, viability assays) and cell-free assays (metabolite concentration, osmolality). Back-up samples (cell-free supernatants) for future reference were produced by centrifuging a portion of the master sample and aliquoting 1.8 mL in Nunc cryovials which were subsequently stored at −70° C. Titer was determined on samples filtered through a 0.22 μm-filter.
(§6) TCC, VCC and viability were determined using an automated cell counter based on the trypan blue exclusion method (ViCell XR, Beckman Coulter). Samples were pre-treated with protease prior to cell counting (TripLE, Life Technologies, USA) using equal volumes of protease stock solution and culture. Incubation to allow dissociation was carried out for 20-25 minutes at 37° C. under gentle shaking Metabolites were measured using Nova Bioprofile (Nova Bioprofile 400); which operates on enzyme-based electrochemical reactions. Osmolality measurement was based on the freezing-point depression method (Advanced Instruments, Model N/A). Filtered cell-free samples were sent to the Bioanalytical Development group for antibody accumulation and binding activity determination (Biacore).

Series [3] relates to DG44 CHO. Kind of series: Dose response study in shake flasks: cell-specific productivity. As to the method: as §1, §3, §4
Shake flask cultures were sampled every other day to determine Total Cell Concentration (TCC), Viable Cell Concentration (VCC), cell viability, metabolite (glucose, lactate, glutamine, glutamate, and ammonia) concentration, and osmolality. The master sample was divided into cell-based assays (TCC, viability assays) and cell-free assays (metabolite concentration, osmolality). […] Titer was determined on samples filtered through a 0.22 μm-filter.
as §2
Integral of Viable Cells was calculated using VCC data and applying the trapezoid rule following the formula,
Specific Productivity was calculated using the last titer data point divided by last calculated IVC value.

Series [4] concerns DG44 CHO. Kind of series: DOE interaction study in shake flasks: ammonia (NH4+) accumulation and production. The note with it: for effect on ammonia (NH4+) generation / accumulation: single intermediate at selected concentration. As to the method:
The experiment to test interactions of all the selected components was carried out in two blocks. Each one of the blocks was designed to contain center points and control shake flasks (batch cultures, no addition of any component). […] All conditions were run in duplicates. Shake flask cultures were sampled every other day to determine Total Cell Concentration (TCC), Viable Cell Concentration (VCC), cell viability, metabolite (glucose, lactate, glutamine, glutamate, and ammonia) concentration, and osmolality. The master sample was divided into cell-based assays (TCC, viability assays) and cell-free assays (metabolite concentration, osmolality). Back-up samples (cell-free supernatants) for future reference were produced by centrifuging a portion of the master sample and aliquoting 1.8 mL in Nunc cryovials which were subsequently stored at −70° C. Titer was determined on samples filtered through a 0.22 μm-filter. TCC, VCC and viability were determined using an automated cell counter based on the trypan blue exclusion method (ViCell XR, Beckman Coulter). Samples were pre-treated with protease prior to cell counting (TripLE, Life Technologies, USA) using equal volumes of protease stock solution and culture. Incubation to allow dissociation was carried out for 20-25 minutes at 37° C. under gentle shaking Metabolites were measured using Nova Bioprofile (Nova Bioprofile 400); which operates on enzyme-based electrochemical reactions. Osmolality measurement was based on the freezing-point depression method (Advanced Instruments, Model N/A). Filtered cell-free samples were sent to the Bioanalytical Development group for antibody accumulation and binding activity determination (Biacore).

The subject of series [5] is DG44 CHO. Kind of series: Dose response study of TCA intermediates in fed-batch shake flasks: viable cell concentration / viability. The note with it: for effect on cell growth / viable cell concentration after addition: dose response, all concentrations tested, compared to control culture.
From the text: Several TCA cycle intermediates were selected for a dose response experiment based on commercial availability, either the acid or its sodium salt were purchased from Sigma Aldrich to prepare stock solution feeds to be used in the study.
FIG. 1 summarizes the TCA cycle components tested and their location in the pathway. Table 1 summarizes the operation condition of shake flasks in the study as well as feed schedules for the dose response study.
as §4, §5, §6

In series [6] the test system is DG44 CHO. Kind of series: DOE interaction study in shake flasks: cell-specific productivity. Particulars: 20 mM, alone. As to the method: The experiment to test interactions of all the selected components was carried out in two blocks. Each one of the blocks was designed to contain center points and control shake flasks (batch cultures, no addition of any component). […] All conditions were run in duplicates. Shake flask cultures were sampled every other day to determine Total Cell Concentration (TCC), Viable Cell Concentration (VCC), cell viability, metabolite (glucose, lactate, glutamine, glutamate, and ammonia) concentration, and osmolality. The master sample was divided into cell-based assays (TCC, viability assays) and cell-free assays (metabolite concentration, osmolality). […] Titer was determined on samples filtered through a 0.22 μm-filter. TCC, VCC and viability were determined using an automated cell counter based on the trypan blue exclusion method (ViCell XR, Beckman Coulter). […] Incubation to allow dissociation was carried out for 20-25 minutes at 37° C. under gentle shaking Metabolites were measured using Nova Bioprofile (Nova Bioprofile 400); which operates on enzyme-based electrochemical reactions. […] Integral of Viable Cells was calculated using VCC data and applying the trapezoid rule following the formula, Specific Productivity was calculated using the last titer data point divided by last calculated IVC value.

On to `CC(=O)C(=O)O` [pyruvic acid], for which the lactate accumulation entry with DG44 CHO [1] is “around 3 g/L”. Moreover, in the series with DG44 CHO [2] (15 mM), the “ammonia accumulated, compared to control shake flasks” value is reported as “slightly higher level than that found in control shake flasks” and the “effect on the reduction of ammonia” value is recorded as “minor effect on the reduction of ammonia”. Also, in the series with DG44 CHO [2] (30 mM), the “ammonia accumulated to” value is 8 mM and the “ammonia consumption effect lasted to culture day” value turned out to be 8 days. In the series on DG44 CHO [2] (45 mM added on Day 5), the “ammonia consumption induced up to culture day” value came out at 10 days and the final ammonia concentration is given as 7 mM. In the series with DG44 CHO [2], the “effect on ammonia (NH4+) accumulation” value is recorded as “dependent on the dose, but the effect lasts only for a few days”. For the same molecule, the cell-specific productivity in the series with DG44 CHO [3] (45 mM, control averaged 31 pg/cell/day) is around 24 pg/cell/day. Moreover, in the series on DG44 CHO [4], the “effect on ammonia (NH4+) generation / accumulation” value is given as “suppress ammonia generation for a few days”. Besides, the “effect on ammonia (NH4+) generation / accumulation” value with DG44 CHO [4] (listed as pyruvate) is listed as “partially reduced”.

On to `O=C(O)CCC(=O)C(=O)O` [α-ketoglutaric acid], for which, in the series with DG44 CHO [5], the “effect on cell growth / viable cell concentration after addition” value is recorded as “cell division seems to stop”. For the same molecule, in the series on DG44 CHO [2] (15, 30, 45 mM tested), the “most effective concentration to reduce production of NH4+” value was determined as 45 mM. For the same molecule, the “cell-specific NH4+ production rate” value in the series on DG44 CHO [2] (all concentrations tested) is listed as “reduced”. Moreover, the “effect on ammonia (NH4+) accumulation” value in the series with DG44 CHO [2] (listed as α-KG) is “reduced; also recorded: most effective”. Also, the “reduction of the cell-specific productivity compared to the control” value with DG44 CHO [3] (used alone (FIGS. 21 and 22)) is recorded as 10-20%. For the same molecule, the “effect on ammonia generation” value in the series on DG44 CHO [4] (20 mM, alone) was “control ammonia generation”. In addition, the “effect on ammonia (NH4+) generation / accumulation” value in the series with DG44 CHO [4] is on record as “consumed”. The molecule also showed a cell-specific productivity in the series on DG44 CHO [6] of around 30 pg/cell/day.

With `O=C(O)/C=C/C(=O)O` [fumaric acid], in the series on DG44 CHO [5], the “effect on cell growth / viable cell concentration after addition” value is recorded as “reduced cell growth”. Further, the “doses needed to stabilize ammonia production (and accumulation)” value with DG44 CHO [2] (after Day 10 of culture) is 30 mM and 45 mM. In addition, in the series on DG44 CHO [2], the “effect on ammonia (NH4+) accumulation” value is reported as “only partial effect”. In addition, the “effect on ammonia (NH4+) generation / accumulation” value in the series on DG44 CHO [4] is recorded as “slows down”.

As to `O=C(O)CC(=O)C(=O)O` [oxaloacetic acid], in the series with DG44 CHO [5], the “effect on cell growth / viable cell concentration after addition” value is given as “did not have any deleterious effect on cell growth”. Besides, in the series with DG44 CHO [2] (10 mM and 15 mM), the “cell-specific production rate and NH4+ accumulation” value is “reduce”. Further, the “concentrations in the culture that control ammonia and maintain cell-specific productivity” value with DG44 CHO [2] (dose response conclusion) is 5 to 15 mM. For the same molecule, in the series on DG44 CHO [2], the “effect on ammonia (NH4+) accumulation” value is listed as “reduction in the ammonia accumulation levels”. For the same molecule, in the series with DG44 CHO [3] (dose response, compared to control), the “effect on final cell-specific productivity” value was “sustained cell-specific productivity values”. Further, the “effect on ammonia (NH4+) generation / accumulation” value in the series with DG44 CHO [4] is recorded as “partially reduced”.

As to `O=C(O)CC(O)C(=O)O` (stereo not shown) [malic acid], the “decline in viability compared to control shake flasks” value in the series on DG44 CHO [5] (5 mM) is “no decline in viability”. The decline in viability result with DG44 CHO [5] (30 mM) is on record as “fastest decline in viability”. In addition, the “concentrations toxic to cells” value with DG44 CHO [5] (dose response experiment) is reported as “higher than 5 mM”. Further, the “cell viability of the culture” value with DG44 CHO [5] (high concentration (15 mM and 30 mM)) is on record as “induced loss of cell viability”. Moreover, the “effect on NH4+ accumulation or production” value with DG44 CHO [2] (5 mM) was “not a clear effect”. The “effect on ammonia (NH4+) generation / accumulation” value in the series with DG44 CHO [4] was “suppress ammonia generation for a few days”; in the series on DG44 CHO [4] (listed as malate), “partially reduced”.

Take `O=C(O)CC(O)(CC(=O)O)C(=O)O` [citric acid]: the “effect on cell growth / viable cell concentration after addition” value in the series with DG44 CHO [5] is “deleterious effects on culture”.
